Literature values in patent publication US12685733B2, “Indole molecules and use thereof in the inhibition of DNA polymerases” (BioVentures, LLC, priority 2019, dated 2026).

Biological target: T1, recombinant hpol κ (Homo sapiens, UniProt Q9UBT6)
T1 sequence (Q9UBT6 1-870): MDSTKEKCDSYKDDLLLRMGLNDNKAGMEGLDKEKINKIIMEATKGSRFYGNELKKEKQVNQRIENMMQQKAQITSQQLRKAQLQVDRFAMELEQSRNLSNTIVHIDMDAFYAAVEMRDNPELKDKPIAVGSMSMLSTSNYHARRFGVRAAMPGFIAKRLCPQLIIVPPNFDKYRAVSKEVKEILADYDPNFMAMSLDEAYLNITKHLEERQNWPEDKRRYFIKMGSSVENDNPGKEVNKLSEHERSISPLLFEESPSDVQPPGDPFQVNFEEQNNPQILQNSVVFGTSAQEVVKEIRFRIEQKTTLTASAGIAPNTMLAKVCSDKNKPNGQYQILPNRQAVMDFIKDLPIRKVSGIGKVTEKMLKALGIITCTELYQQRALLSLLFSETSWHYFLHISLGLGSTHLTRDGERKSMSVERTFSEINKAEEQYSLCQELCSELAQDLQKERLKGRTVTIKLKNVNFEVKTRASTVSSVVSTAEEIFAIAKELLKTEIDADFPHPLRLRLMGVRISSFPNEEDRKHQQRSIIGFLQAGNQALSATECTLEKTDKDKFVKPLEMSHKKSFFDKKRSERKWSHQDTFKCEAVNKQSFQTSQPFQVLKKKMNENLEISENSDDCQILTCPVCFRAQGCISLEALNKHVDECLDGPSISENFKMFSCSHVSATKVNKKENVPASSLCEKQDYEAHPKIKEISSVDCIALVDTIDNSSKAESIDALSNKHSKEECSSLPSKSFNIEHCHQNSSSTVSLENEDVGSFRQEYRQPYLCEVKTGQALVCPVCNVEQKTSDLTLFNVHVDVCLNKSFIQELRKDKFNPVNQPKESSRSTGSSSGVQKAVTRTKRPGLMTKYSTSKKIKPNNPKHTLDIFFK
Conditions: earlier screen; cited from earlier work

## CCOc1nc2cccc(C(=O)OC(C)OC(=O)OC3CCCCC3)c2n1Cc1ccc(-c2ccccc2-c2nn[nH]n2)cc1 (stereo not shown) [candesartan, candesartan cilexetil]
  IC50 for inhibition of recombinant hpol κ: tens of micromolar
